Test results from US20200147039A1, “COMPOUNDS USEFUL IN INHIBITING HUMAN TREFOIL FACTOR 3” (NATIONAL UNIVERSITY OF SINGAPORE, priority 2017, published 2020).
pIC50: −log10 of the molar value.

System: MCF-7
Test: AlamarBlue cell viability assay, MCF7
Format: cell-based, human
Conditions: Homo sapiens, MCF7, MCF-7, AlamarBlue cell viability (Table 8)
Text: (A) Inhibitory concentration 50% (IC50) values for compound 43 in the MC cell lines are tabulated, using an AlamarBlue™ cell viability assay as previously described in Pandey V et al., Breast Cancer Res. 2014; 16(5):429. (B) Measured dose-dependent manner effect of compound 43 on the viability of MC cells (left-side, TFF3-high and right, TFF3-low) using AlamarBlue™ viability assay as previously described (ibid). (C) Apoptotic cell death of mammary carcinoma cell lines measured after treatment with 10 μM compound 43 using flow cytometry analysis at 24 hour as described previously in Keerthy H K et al., PloS one. 2014; 9(9):e107118. Annexin V-FITC staining is indicated on the X-axis and PI staining on the Y-axis. […] Acquisition of Annexin V and PI data were represented as percentage (%) in each quadrant. Note: CM, conditioned media; MCF10A and MCF12A, non-transformed immortalized-mammary epithelial cell line. Points are mean of triplicate experiments; bars, ±SD. Statistical significance was assessed by using an unpaired two-tailed Student's t test (P<0.05 was considered as significant) using GraphPad Prism5. Columns are mean of triplicate experiments; bars, ±SD. **P<0.001, *P<0.05.
The human immortalized mammary epithelial cell lines, MCF10A, and MCF12A; and immortalized hepatocellular epithelial cell line, LO2 were obtained from the American Type Culture Collection (ATCC, Rockville, Md.) and were cultured as per ATCC propagation instructions. MC cell lines, MCF7, T47D, BT474, BT20, MDA-MB-361, MDA-MB-436, MDA-MB-468, and MDA-MB-231; endometrial carcinoma cell lines, Ishikawa, ECC1, RL95-2 and AN3; hepatocellular carcinoma cell lines, Hep3B, H2P, and H2M; colon carcinoma cell lines, DLD-1, and Caco-2; and prostate carcinoma cell lines, PC3, LNCaP, and DU145 were obtained from the American Type Culture Collection (ATCC, Rockville, Md.). Pancreatic carcinoma cell lines, AsPC-1 and BxPC-3; Lung carcinoma cell lines, HCC-827, NCI-H1975, HCC-4006, PC-14, and NCI-H1299; and Thyroid carcinoma cell lines HTH83, CAL62, T238, and OGK-M were obtained from Prof. H. Phillip Koeffler's laboratory at The Cancer Science Institute of Singapore, National University of Singapore (NUS). Gastric carcinoma cell lines, AGS, MKN-28, MKN-45, and A2-528 were obtained from Prof. Yoshiaki Ito's laboratory at The Cancer Science Institute of Singapore, NUS. All cell lines were cultured as per ATCC propagation instructions.
The above synthesised compounds were initially evaluated against a range of carcinoma cells using an AlamarBlue™ cell viability assay (using the protocol discussed above). The tested compounds were generally efficacious at reducing the viability of various carcinoma cells compared to vehicle (DMSO) treated cells. Table 8 provides selected IC50 data for certain of the compounds synthesised herein against MCF-7.
In table 9 IC50 values of compound 43 compound library in several cancer cell lines are tabulated, using an AlamarBlue® cell viability assay as previously described in Pandey V et al., Breast Cancer Res. 2014; 16(5):429. Statistical analysis was assessed by using GraphPad Prism5. Note: NV, no value.

**Q.** How did the pIC50 turn out when COc1ccc2c3c(c(=O)oc2c1)C(c1ccc(-c2ccc(C)nc2)cc1)C(C#N)=C(N)O3 (stereo not drawn) [Compound 153] was run?
**A.** 5.31

**Q.** COc1ccc2c3c(c(=O)oc2c1)C(c1ccc(-c2ccc(Cl)cc2)cc1)C(C#N)=C(N)O3 (stereo not drawn) [Compound 154] was tested. Which pIC50 did it give?
**A.** 5.24

**Q.** With N#CC1=C(N)Oc2c(c(=O)oc3ccc(F)cc23)C1c1ccc(-c2ccc(Cl)cc2)cc1 (stereo not drawn) [Compound 155] as the molecule, how does the pIC50 read?
**A.** 4.44

**Q.** N#CC1=C(N)Oc2c(c(=O)oc3ccc(F)cc23)C1c1ccc(-c2cccc3ccccc23)cc1 (stereo not drawn) [Compound 156] was tested. Which pIC50 did it give?
**A.** 4.61

**Q.** With CC(=O)c1ccc(-c2ccc(C3C(C#N)=C(N)Oc4c3c(=O)oc3ccc(F)cc43)cc2)s1 (stereo not drawn) [Compound 158] as the molecule, how does the pIC50 read?
**A.** 4.02

**Q.** How did the pIC50 turn out when N#CC1=C(N)Oc2c(c(=O)oc3ccc(F)cc23)C1c1ccc(-c2cncnc2)cc1 (stereo not drawn) [Compound 160] was run?
**A.** 3.60

**Q.** With Cc1ccccc1-c1ccc(C2C(C#N)=C(N)Oc3c2c(=O)oc2ccc(F)cc32)cc1 (stereo not drawn) [Compound 162] as the molecule, how does the pIC50 read?
**A.** 3.79

**Q.** With COc1ccc2c3c(c(=O)oc2c1)C(c1ccc(-c2ccccc2C)cc1)C(C#N)=C(N)O3 (stereo not drawn) [Compound 163] as the molecule, how does the pIC50 read?
**A.** 4.64

**Q.** How did the pIC50 turn out when COc1cccc(-c2ccc(C3C(C#N)=C(N)Oc4c3c(=O)oc3ccc(F)cc43)cc2)c1 (stereo not drawn) [Compound 164] was run?
**A.** 4.56

**Q.** How did the pIC50 turn out when N#CC1=C(N)Oc2c(c(=O)oc3ccc(F)cc23)C1c1ccc(-c2cccnc2)cc1F (stereo not drawn) [Compound 166] was run?
**A.** 4.27

**Q.** How did the pIC50 turn out when N#CC1=C(N)Oc2c(c(=O)oc3ccc(F)cc23)C1c1ccc(-c2cncnc2)cc1F (stereo not drawn) [Compound 168] was run?
**A.** 3.60

**Q.** Cc1cc(-c2ccc(C3C(C#N)=C(N)Oc4c3c(=O)oc3ccc(F)cc43)c(F)c2)cnc1Cl (stereo not drawn) [Compound 170] was tested. Which pIC50 did it give?
**A.** 4.56
